According to patent US20250230193A1, “CYCLIC COMPOUND HAVING SELECTIVE KRAS INHIBITORY EFFECT ON HRAS AND NRAS” (CHUGAI SEIYAKU KABUSHIKI KAISHA, priority 2022, published 2025):

Tests used:
[1] = target: GDP-bound HRAS wild-type protein (Homo sapiens, UniProt P01112); test: Binding to HRAS by surface plasmon resonance (SPR), Single Cycle Kinetics; details: for HRAS/KRAS (ratio of KD value with respect to HRAS to KD value with respect to KRAS) / HRAS/KRAS (ratio of KD value for HRAS to KD value for KRAS): GDP-bound HRAS wild-type vs GDP-bound KRAS wild-type
GDP-bound HRAS wild-type protein, sequence (P01112 whole entry): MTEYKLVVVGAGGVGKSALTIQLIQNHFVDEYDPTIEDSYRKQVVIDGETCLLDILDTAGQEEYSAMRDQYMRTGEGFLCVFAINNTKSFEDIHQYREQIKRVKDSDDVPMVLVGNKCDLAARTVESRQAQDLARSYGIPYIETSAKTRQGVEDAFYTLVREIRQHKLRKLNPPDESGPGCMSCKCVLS

[2] = target: GDP-bound NRAS wild-type protein (Homo sapiens, UniProt P01111); test: Binding to NRAS by surface plasmon resonance (SPR), Single Cycle Kinetics; details: for NRAS/KRAS (ratio of KD value with respect to NRAS to KD value with respect to KRAS) / NRAS/KRAS (ratio of KD value for NRAS to KD value for KRAS): GDP-bound NRAS wild-type vs GDP-bound KRAS wild-type
GDP-bound NRAS wild-type protein, sequence (P01111 whole entry): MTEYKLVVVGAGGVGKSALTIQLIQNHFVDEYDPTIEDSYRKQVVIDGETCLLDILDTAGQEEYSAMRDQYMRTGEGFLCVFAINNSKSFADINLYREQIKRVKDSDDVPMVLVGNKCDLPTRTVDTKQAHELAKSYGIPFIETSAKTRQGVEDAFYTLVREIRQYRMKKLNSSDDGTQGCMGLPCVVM

For `CCOC[C@H]1C(=O)N[C@@H]([C@@H](C)CC)C(=O)N(C)CC(=O)N(C)[C@H]2C/C=C\CCN(C2=O)[C@@H](Cc2ccc(C)cc2)C(=O)N(C)CC(=O)N[C@@H](CCc2ccc(C(F)(F)F)c(OC)c2)C(=O)N2C[C@H](OCC)C[C@H]2C(=O)NC2(CC(C)(C)C2)C(=O)N(C)[C@@H](C2CCCC2)C(=O)N(C)[C@H](C(=O)N(CC)CC)CC(=O)N1C` [PP2406], the “HRAS/KRAS (ratio of KD value with respect to HRAS to KD value with respect to KRAS)” value ([1]; SPR) was “A (a compound having 10 or more and less than 20 is denoted as A)” and the “NRAS/KRAS (ratio of KD value with respect to NRAS to KD value with respect to KRAS)” value ([2]; SPR) was “A (a compound having 10 or more and less than 20 is denoted as A)”.

`CCO[C@@H]1C[C@H]2C(=O)NC3(CCC3)C(=O)N(C)[C@@H](C3CCCC3)C(=O)N(C)[C@H](C(=O)N(CC)CC)CC(=O)N(C)[C@@H](CC(F)F)C(=O)N[C@@H]([C@@H](C)CC)C(=O)N(C)CC(=O)N(C)[C@H]3C/C=C\CCN(C3=O)[C@@H](Cc3ccc(C(F)(F)F)cc3)C(=O)N(C)CC(=O)N[C@@H](CCc3cc(F)c(C(F)(F)F)c(F)c3)C(=O)N2C1` [PP1309] was tested, and the “HRAS/KRAS (ratio of KD value for GDP-bound HRAS wild-type protein to KD value for KRAS)” value ([1]; SPR, KD ratio class) was “A (a compound having 10 or more and less than 20 is denoted as A)” and the “NRAS/KRAS (ratio of KD value for GDP-bound NRAS wild-type protein to KD value for KRAS)” value ([2]; SPR, KD ratio class) was “A (a compound having 10 or more and less than 20 is denoted as A)”.

With `CCCN1C(=O)[C@@H]2CCN2C(=O)[C@H](C)N(C)C(=O)[C@H]([C@@H](C)CC)NC(=O)[C@H](CC(C)C)N(C)C(=O)C[C@@H](C(=O)N2CCOCC2)N(C)C(=O)[C@H](C2CCCC2)N(C)C(=O)C2(CCCC2)NC(=O)[C@@H]2C[C@H](O)CN2C(=O)[C@H](CCc2ccc(C(F)(F)F)c(Cl)c2)NC(=O)CN(C)C(=O)[C@@H]1Cc1ccc(C(F)(F)F)cc1` (stereo in doubt) [PP0238] the “HRAS/KRAS (ratio of KD for GDP-bound HRAS wild-type to KD for KRAS)” value ([1]; KD ratio HRAS/KRAS, SPR) was “C (A compound having a KD ratio of 0.1 or more and less than 3 is denoted as C)” and the “NRAS/KRAS (ratio of KD for GDP-bound NRAS wild-type to KD for KRAS)” value ([2]; KD ratio NRAS/KRAS, SPR) was “C (A compound having a KD ratio of 0.1 or more and less than 3 is denoted as C)”.

For `CCO[C@@H]1C[C@H]2C(=O)NC3(CC(C)(C)C3)C(=O)N(C)[C@@H](C(CC)CC)C(=O)N(C)[C@H](C(=O)N(C)C)CC(=O)N(C)[C@@H](CC)C(=O)N[C@@H]([C@@H](C)CC)C(=O)N(C)CC(=O)N(C)[C@H]3C/C=C\CCN(C3=O)[C@@H](Cc3ccc(C)cc3)C(=O)N(C)CC(=O)N[C@@H](CCc3cc(F)c(C(F)(F)F)c(F)c3)C(=O)N2C1` [PP2147], the “HRAS/KRAS (ratio of KD value with respect to HRAS to KD value with respect to KRAS)” value ([1]; SPR) was “B (a compound having 3 or more and less than 10 is denoted as B)” and the “NRAS/KRAS (ratio of KD value with respect to NRAS to KD value with respect to KRAS)” value ([2]; SPR) was “A (a compound having 10 or more and less than 20 is denoted as A)”.

With `CCC(CC)[C@H]1C(=O)N(C)[C@H](C(=O)N(C)C)CC(=O)N(C)[C@@H](COC)C(=O)N[C@@H]([C@@H](C)CC)C(=O)N(C)CC(=O)N(C)[C@H]2C/C=C\CCN(C2=O)[C@@H](Cc2ccc(C)cc2)C(=O)N(C)CC(=O)N[C@@H](CCc2ccc(C(F)(F)F)c(Cl)c2)C(=O)N2CCCC[C@H]2C(=O)NC2(CC(C)(C)C2)C(=O)N1C` [PP2931] the “HRAS/KRAS (ratio of KD value with respect to GDP-bound HRAS wild-type protein to KD value with respect to KRAS)” value ([1]; KD ratio HRAS/KRAS, class symbols) was “A (a compound having 10 or more and less than 20 is denoted as A)” and the “NRAS/KRAS (ratio of KD value with respect to GDP-bound NRAS wild-type protein to KD value with respect to KRAS)” value ([2]; KD ratio NRAS/KRAS, class symbols) was “A (a compound having 10 or more and less than 20 is denoted as A)”.

In the case of `CC[C@H](C)[C@@H]1NC(=O)[C@H](CC2CCC2)N(C)C(=O)C[C@@H](C(=O)N(C)C)N(C)C(=O)[C@H](C2CCCC2)N(C)C(=O)C2(CC(C)(C)C2)NC(=O)[C@@H]2CCCN2C(=O)[C@H](CCc2cc(F)c(C(F)(F)F)c(F)c2)NC(=O)CN(C)C(=O)[C@H](Cc2ccc(C(F)(F)F)cc2)N2CC/C=C\C[C@@H](C2=O)N(C)C(=O)CN(C)C1=O` [PP1728], the “HRAS/KRAS (ratio of KD value for HRAS to KD value for KRAS)” value ([1]; SPR) is reported as “A (a compound having 10 or more and less than 20 is denoted as A)” and the “NRAS/KRAS (ratio of KD value for NRAS to KD value for KRAS)” value ([2]; SPR) is reported as “A (a compound having 10 or more and less than 20 is denoted as A)”.

`CCO[C@@H]1C[C@H]2C(=O)NC3(CC(C)(C)C3)C(=O)N(C)[C@@H](C3CCCC3)C(=O)N(C)[C@H](C(=O)N(C)C)CC(=O)N(C)[C@@H](C3CCC3)C(=O)N[C@@H]([C@@H](C)CC)C(=O)N(C)CC(=O)N(C)[C@H]3C/C=C\CCN(C3=O)[C@@H](Cc3ccc(C(F)(F)F)cc3)C(=O)N(C)CC(=O)N[C@@H](CCc3ccc(C(F)(F)F)c(OC)c3)C(=O)N2C1` [PP1987] was tested, and the “HRAS/KRAS (ratio of KD value for HRAS to KD value for KRAS)” value ([1]; SPR) was “A (a compound having 10 or more and less than 20 is denoted as A)” and the “NRAS/KRAS (ratio of KD value for NRAS to KD value for KRAS)” value ([2]; SPR) was “A (a compound having 10 or more and less than 20 is denoted as A)”.
